Experimental data reported in patent publication US20110311511A1, “CRYSTAL STRUCTURE OF PfA-M1 AND THE PfA-M1 Co4 COMPLEX” (priority 2008, published 2011).

How the values were obtained:
[1] = biological target: T1, PfA-M17 (Plasmodium falciparum, UniProt Q8IL11); conditions: cited from earlier work
T1 sequence (Q8IL11 84-605 limits assumed): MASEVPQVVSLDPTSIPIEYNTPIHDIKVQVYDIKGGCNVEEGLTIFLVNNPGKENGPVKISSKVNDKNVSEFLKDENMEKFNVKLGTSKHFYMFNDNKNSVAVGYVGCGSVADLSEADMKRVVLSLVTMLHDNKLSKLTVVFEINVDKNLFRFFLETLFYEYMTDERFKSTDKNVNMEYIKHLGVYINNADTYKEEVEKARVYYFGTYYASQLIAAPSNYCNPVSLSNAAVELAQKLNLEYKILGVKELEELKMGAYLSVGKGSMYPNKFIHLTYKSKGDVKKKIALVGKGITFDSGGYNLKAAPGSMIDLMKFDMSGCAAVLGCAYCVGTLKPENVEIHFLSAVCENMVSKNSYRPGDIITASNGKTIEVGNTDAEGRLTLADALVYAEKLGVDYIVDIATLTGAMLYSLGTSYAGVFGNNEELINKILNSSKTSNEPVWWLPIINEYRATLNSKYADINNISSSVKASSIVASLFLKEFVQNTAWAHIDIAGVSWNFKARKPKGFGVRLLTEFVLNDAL

[2] = biological target: recombinant P. falciparum M1 aminopeptidase (rPfA-M1); test: Enzymatic analysis: aminopeptidase activity with fluorogenic peptide substrates (NHMec release) and inhibition; assay type: biochemical, Plasmodium falciparum; conditions: for Km / kcat: substrate of rPfA-M1, pH 7.5
Experimental: Aminopeptidase activity was determined by measuring the release of the fluorogenic leaving group, 7-amino-4-methyl-coumarin (NHMec) from the fluorogenic peptide substrates H-Leu-NHMec, H-Ala-NHMec, H-Arg-NHMec, H-Met-NHMec, H-Phe-NHMec, H-Gly-NHMec, H-Val-NHMec, H-Ile-NHMec and H-Pro-NHMec. Reactions were carried out in 96-well microtitre plates (200 μl total volume, 30 min, 37° C.) using a spectrofluorimeter (Bio-Tek KC4) with excitation at 370 nm and emission at 460 nm. […] […] Inhibition experiments were carried out in the presence of substrate.

[3] = system: P. c. chabaudi; conditions: cited from earlier work

NC(CCc1ccccc1)P(=O)(O)CC(Cc1ccccc1)C(=O)O (stereo not shown) [Co4, hPheP[CH2]Phe]
inhibition of PfA-M17 [1]: inhibits
Ki ([2]; inhibition of rPfA-M1, in the presence of substrate): 78.3 nM
reduction of murine infection of P. c. chabaudi compared to controls [3]: 92%

CCC(C)C(N)C(=O)Nc1ccc2c(C)cc(=O)oc2c1 (stereo not shown) [H-Ile-NHmec]
Km [2]: 1710 µM
kcat [2]: 0.040 s⁻¹

Cc1cc(=O)oc2cc(NC(=O)[C@@H]3CCCN3)ccc12 [H-Pro-NHmec]
Km [2]: 734 µM
kcat [2]: 0.0032 s⁻¹

Cc1cc(=O)oc2cc(NC(=O)[C@@H](N)C(C)C)ccc12 [H-Val-NHmec]
Km [2]: 1070 µM
kcat [2]: 0.036 s⁻¹

H-Ala-NHmec
Km [2]: 889 µM
kcat [2]: 2.04 s⁻¹

H-Arg-NHmec
Km [2]: 717 µM
kcat [2]: 1.07 s⁻¹

H-Gly-NHmec
Km [2]: 349 µM
kcat [2]: 0.116 s⁻¹

H-Leu-NHmec
Km [2]: 330 µM
kcat [2]: 1.52 s⁻¹

H-Phe-NHmec
Km [2]: 195 µM
kcat [2]: 0.18 s⁻¹
